Measured values published in patent US4396628A (priority 1982, dated 1983).
pIC50: −log10 of the molar value. Entries after “also recorded” stand apart in the source; their conditions may differ. Read-outs that look alike come from different tables or passages of the source.

Legend:
[1] = tested on: vesicular stomatitis virus (VSV); assay: microbe, parasite or virus in culture; type: cell-based, vesicular stomatitis virus; Swiss 3T3 mouse cells; details: for VSV-dependent RNA synthesis when VSV neutralizing antibody omitted (reversibility): Swiss 3T3, inhibitor-treated cultures; for pIC50: Vesicular stomatitis virus, Swiss-3T3, in Mus musculus, 10 min, read-out: half-maximal inhibitory concentration, VSV dependent RNA synthesis; for effect on VSV entry / VSV dependent RNA synthesis: in words
[2] = molecular target: T1, guinea pig liver transglutaminase (Cavia cutleri, UniProt P08587); assay: guinea pig liver transglutaminase activity, incorporation of 3H-putrescine into casein; type: biochemical; details: for pIC50: 3H-putrescine into casein, read-out: Half-maximal Inhibitory Concentration, transglutaminase; for potency ranking in the transglutaminase assay: in words
T1 construct: guinea pig liver transglutaminase activity; from tissue; host or cells: guinea pig liver
T1 sequence (P08587 2-690): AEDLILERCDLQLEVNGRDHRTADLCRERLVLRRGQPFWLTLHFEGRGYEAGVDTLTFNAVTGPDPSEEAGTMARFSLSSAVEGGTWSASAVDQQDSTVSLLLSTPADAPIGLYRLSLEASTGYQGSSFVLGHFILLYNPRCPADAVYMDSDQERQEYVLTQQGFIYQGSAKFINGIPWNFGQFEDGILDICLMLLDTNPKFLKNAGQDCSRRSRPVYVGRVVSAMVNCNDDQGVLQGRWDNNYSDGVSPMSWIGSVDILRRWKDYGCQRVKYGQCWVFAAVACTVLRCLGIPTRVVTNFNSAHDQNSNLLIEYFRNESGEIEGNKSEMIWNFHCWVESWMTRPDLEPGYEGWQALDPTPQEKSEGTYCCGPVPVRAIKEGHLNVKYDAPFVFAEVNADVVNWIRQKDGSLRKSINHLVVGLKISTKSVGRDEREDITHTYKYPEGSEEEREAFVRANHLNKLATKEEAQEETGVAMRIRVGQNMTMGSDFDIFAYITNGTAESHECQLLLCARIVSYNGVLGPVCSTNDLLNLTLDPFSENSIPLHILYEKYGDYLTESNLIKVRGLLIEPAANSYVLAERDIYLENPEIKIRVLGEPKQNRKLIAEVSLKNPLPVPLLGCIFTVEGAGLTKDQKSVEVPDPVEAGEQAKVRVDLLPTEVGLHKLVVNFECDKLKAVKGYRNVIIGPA
Experimental: Effect of Dansylcadaverine, Amantadine, and Rimantadine
on the Activity of Guinea Pig Liver Transglutaminase
Enzyme activity was measured by the incorporation of ^3 H-putrescine into casein. All three inhibitors of viral and α2 M internalization were also inhibitory in the transglutaminase assay.

[3] = tested on: α2 macroglobulin (α2 M) uptake, Swiss 3T3 cells; assay: uptake (internalization) of 125I-α2 macroglobulin by Swiss 3T3 cells; type: cell-based, mouse; details: for pIC50: Mus musculus, 0.75 h, Swiss 3T3, 0.5 μg/ml 125I-α2 M, 45 min at 37° C., read-out: half-maximal inhibitory concentration, α2 M uptake; for effect on α2 macroglobulin uptake: in words
[4] = tested on: vesicular stomatitis virus (VSV); type: cell-based, vesicular stomatitis virus; Swiss 3T3 mouse cells; details: for effect on uptake of VSV and α2 M via coated pits: Swiss 3T3, EM
Swiss 3T3 cells [5] = assay: cytotoxicity and cellular RNA synthesis in drug-treated Swiss 3T3 cultures; details: Swiss 3T3, experimental protocol of FIG. 2
Swiss 3T3 cells [6] = tested on: Swiss 3T3 cells
[7] = tested on: α2 M in coated pits, Swiss 3T3 cells; assay: electron microscopy (peroxidase staining) of α2 M appearance in coated pits of Swiss 3T3 cells; type: cell-based, mouse; details: 250 μg/ml α2 M; for α2 M appearance in coated pits: 45 min at 4° C., varying inhibitor concentrations
Experimental: Swiss 3T3 cells were incubated with 250 μg/ml α2 M at 4° C., with and without inhibitor. Em localization of α2 M was performed using a peroxidase staining technique.
Varying concentrations of amantadine and rimantadine were present during the incubation period. The cells were then washed, fixed for EM and the α2 M located by the peroxidase method. […] In the absence of inhibitors, α2 M was easily detected in coated pits by the peroxidase techniques (FIG. 5B).

[8] = tested on: vesicular stomatitis virus (VSV); type: cell-based, vesicular stomatitis virus; Swiss 3T3 mouse cells; details: 200 μM; 10 min at 37° C.; MOI 500

Compound	VSV-dependent RNA synthesis when VSV neutralizing antibody omitted (reversibility) [1]	pIC50 [1]	effect on VSV entry / VSV dependent RNA synthesis [1]	pIC50 [2]	potency ranking in the transglutaminase assay [2]	pIC50 [3]	effect on α2 macroglobulin uptake [3]	effect on uptake of VSV and α2 M via coated pits [4]	cytotoxicity (Swiss 3T3 cells [5])	cellular RNA synthesis, drug-treated versus control cultures (Swiss 3T3 cells [6])	α2 M appearance in coated pits [7]	α2 M localization by EM ([7]; 5 mM amantadine, 4° C. (FIG. 5C))	potency relative to amantadine, VSV uptake (antiviral) ([1]; dansylcadaverine versus amantadine)	intracellular VSV G protein / VSV uptake by immunofluorescence [8]	coated pit appearance in VSV-infected cells by EM ([4]; 100 μM dansylcadaverine (FIG. 4D))	coated pit appearance in VSV-infected cells by EM ([4]; 500 μM dansylcadaverine (FIG. 4E))	coated pit appearance in VSV-infected cells by EM ([4]; 1 mM rimantadine (FIG. 4F))	α2 M localization by EM ([7]; 1 mM rimantadine, 4° C. (FIG. 5D))
NC12CC3CC(CC(C3)C1)C2 [amantadine, 1-adamantanamine]	control levels of VSV-dependent RNA synthesis	3.00	reduction of VSV-dependent RNA synthesis; also recorded: inhibit VSV entry; also recorded: reduced VSV dependent RNA synthesis	1.70	third	2.60	inhibit the uptake of α2 macroglobulin	drastically perturbed this uptake mechanism	no evidence of cytotoxicity	equivalent in control and drug-treated cultures	inhibition of α2 M appearance in coated pits	α2 M bound diffusely to the plasma membrane						
CN(C)c1cccc2c(S(=O)(=O)NCCCCCN)cccc12 [dansylcadaverine]	control levels of VSV-dependent RNA synthesis	4.30	blocking virus (such as vesicular stomatitis virus, VSV), and α2 macroglobulin uptake; also recorded: reduction of VSV-dependent RNA synthesis; also recorded: inhibit VSV entry; also recorded: reduced VSV dependent RNA synthesis	3.70	most potent	3.82	inhibit the uptake of α2 macroglobulin	drastically perturbed this uptake mechanism	no evidence of cytotoxicity	equivalent in control and drug-treated cultures			20 fold	little or no G protein	vacant coated pit	vacant coated pit		
CC(N)C12CC3CC(CC(C3)C1)C2 (stereo not drawn) [rimantadine]				2.30	second most potent	3.30		drastically perturbed this uptake mechanism			inhibition of α2 M appearance in coated pits						vacant coated pit	α2 M bound to plasma membrane
